Data reported in the NIST ThermoML archive (doi:10.1016/j.fluid.2014.03.004).
Numbers after ± are expanded uncertainties.

Conditions: 101.33 kPa, Liquid; for mass density: Vibrating tube method; for electrical conductivity: Alternating current cell with electrodes; for viscosity: Falling or rolling sphere viscometry

| SMILES | mass density (293.15 K) [kg/m3] | electrical conductivity (298.15 K) [S/m] | viscosity (298.15 K) [mPa·s] | mass density (298.15 K) [kg/m3] | viscosity (303.15 K) [mPa·s] | mass density (303.15 K) [kg/m3] | electrical conductivity (303.16 K) [S/m] | electrical conductivity (313.15 K) [S/m] | viscosity (313.15 K) [mPa·s] | mass density (313.15 K) [kg/m3] | electrical conductivity (323.15 K) [S/m] | viscosity (323.15 K) [mPa·s] | mass density (323.15 K) [kg/m3] | electrical conductivity (333.15 K) [S/m] | viscosity (333.15 K) [mPa·s] | mass density (333.15 K) [kg/m3] | electrical conductivity (343.15 K) [S/m] | mass density (343.15 K) [kg/m3] | viscosity (353.15 K) [mPa·s] | mass density (353.15 K) [kg/m3] | also measured |
| --- | --- | --- | --- | --- | --- | --- | --- | --- | --- | --- | --- | --- | --- | --- | --- | --- | --- | --- | --- | --- | --- |
| CCCCn1cc[n+](CCC(C)C)c1.O=S(=O)([N-]S(=O)(=O)C(F)(F)F)C(F)(F)F | 1322.37 ± 3.4 | 0.145 ± 0.006 | 93 ± 3.6 | 1318.1 ± 3.4 | 73.2 ± 2.6 | 1313.65 ± 3.4 | 0.182 ± 0.007 | 0.273 ± 0.011 | 46.5 ± 1.6 | 1304.82 ± 3.3 | 0.389 ± 0.016 | 31.5 ± 1.1 | 1296.03 ± 3.3 | 0.529 ± 0.021 | 22.4 ± 0.8 | 1287.3 ± 3.2 | 0.694 ± 0.028 | 1278.62 ± 3.2 | 12.6 ± 0.4 | 1269.99 ± 3.1 | electrical conductivity (353.16 K): 0.883 ± 0.035 S/m |
| CCCC[n+]1ccn(C2CCCC2)c1.O=S(=O)([N-]S(=O)(=O)C(F)(F)F)C(F)(F)F | 1383.1 ± 3.7 | 0.197 ± 0.008 | 85.1 ± 3.2 | 1378.52 ± 3.7 | 67.9 ± 2.4 | 1373.96 ± 3.7 | 0.246 ± 0.01 | 0.361 ± 0.014 | 44.3 ± 1.5 | 1364.86 ± 3.6 | 0.504 ± 0.02 | 30.8 ± 1.1 | 1355.84 ± 3.6 | 0.668 ± 0.027 | 22.3 ± 0.8 | 1346.87 ± 3.5 | 0.878 ± 0.035 | 1337.96 ± 3.5 | 13 ± 0.4 | 1329.11 ± 3.4 | viscosity (343.15 K): 16.7 ± 0.6 mPa·s; electrical conductivity (353.15 K): 1.11 ± 0.045 S/m |
| CCCCC[n+]1ccn(CCCC)c1.O=S(=O)([N-]S(=O)(=O)C(F)(F)F)C(F)(F)F | 1322.07 ± 3.4 | 0.164 ± 0.007 | 75.9 ± 2.7 | 1317.6 ± 3.4 | 61.5 ± 2.1 | 1313.16 ± 3.4 | 0.205 ± 0.008 | 0.303 ± 0.012 | 40.3 ± 1.4 | 1304.29 ± 3.3 | 0.427 ± 0.017 | 28 ± 1 | 1295.48 ± 3.3 | 0.58 ± 0.023 | 20.2 ± 0.7 | 1286.72 ± 3.2 | 0.757 ± 0.03 | 1278.02 ± 3.2 | 11.6 ± 0.4 | 1269.36 ± 3.1 | electrical conductivity (353.16 K): 0.96 ± 0.038 S/m |
